Source: article PMC3267170, “Pharmacological Modulation of Diacylglycerol-Sensitive TRPC3/6/7 Channels” (Current Pharmaceutical Biotechnology, 2011)
pIC50: −log10 of the molar value. Like-named read-outs stand apart in the source and are kept apart here. Blank lines part the entries; values can stand above or below the compound they belong to.

Key:
TRPC6 [1] = molecular target: T1, TRPC6 (Homo sapiens, UniProt Q9Y210); test: FLIPR calcium entry in TRPC6-expressing cells stimulated by hyperforin; assay type: cell-based; conditions: read-out: IC50, hyperforin-induced TRPC6-mediated calcium entry (Fig. 3)
T1 construct: expressed in transfected cells
T1 sequence (Q9Y210 1-931): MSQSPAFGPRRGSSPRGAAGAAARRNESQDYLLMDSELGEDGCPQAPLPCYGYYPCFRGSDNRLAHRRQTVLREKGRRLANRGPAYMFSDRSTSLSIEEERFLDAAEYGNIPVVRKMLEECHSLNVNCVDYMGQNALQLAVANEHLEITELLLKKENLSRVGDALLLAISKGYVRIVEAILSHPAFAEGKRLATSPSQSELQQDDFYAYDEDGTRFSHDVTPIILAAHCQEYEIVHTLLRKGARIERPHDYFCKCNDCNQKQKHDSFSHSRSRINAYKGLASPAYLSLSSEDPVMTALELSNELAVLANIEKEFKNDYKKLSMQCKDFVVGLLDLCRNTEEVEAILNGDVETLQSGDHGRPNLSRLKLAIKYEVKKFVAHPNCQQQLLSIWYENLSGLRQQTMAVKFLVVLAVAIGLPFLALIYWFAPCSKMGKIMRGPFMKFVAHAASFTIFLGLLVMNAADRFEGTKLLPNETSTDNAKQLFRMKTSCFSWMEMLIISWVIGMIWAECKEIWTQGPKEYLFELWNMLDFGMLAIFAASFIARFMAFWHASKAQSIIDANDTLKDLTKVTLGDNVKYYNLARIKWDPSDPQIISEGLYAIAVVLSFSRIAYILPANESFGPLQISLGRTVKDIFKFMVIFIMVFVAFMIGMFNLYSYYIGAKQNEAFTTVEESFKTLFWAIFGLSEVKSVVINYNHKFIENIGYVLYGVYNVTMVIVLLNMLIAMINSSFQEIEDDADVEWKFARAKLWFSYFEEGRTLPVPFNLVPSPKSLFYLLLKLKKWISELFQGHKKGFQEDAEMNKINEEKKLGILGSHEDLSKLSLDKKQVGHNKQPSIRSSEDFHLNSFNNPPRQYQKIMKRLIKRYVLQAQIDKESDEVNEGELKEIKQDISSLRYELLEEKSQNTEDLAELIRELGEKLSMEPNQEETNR
Protocol: (§1) Using this approach, we tested several other structurally related compounds to get a first view on the structure-function relationships of TRPC6.
A) The chemical structures of the tested compound is shown. […] Calcium entry was measured using FLIPR^Tetra and data analysed as described in Jörs et al.. The data were calculated from one experiment of at least three experiments performed in quadruplicates per concentration and TRP channel.
(§2) Calcium entry was measured using FLIPR^Tetra and data analysed as described in Jörs et al.. The data were calculated from one experiment of at least three experiments performed in quadruplicates per concentration and TRP channel.

TRPC6 [2] = molecular target: T1, TRPC6; parameters: method as in PMID 9368034, PMID 10970899; conditions: read-out: concentration needed to block TRPC6; cited from earlier work
TRPC3 [3] = test system: TRPC3; parameters: method as in PMID 9368034, PMID 10970899; conditions: read-out: half-maximal concentration necessary for TRPC3 inhibition; cited from earlier work
TRPC3 [4] = test system: TRPC3; parameters: method as in PMID 12700192; conditions: 100 µM; human myometrial cells; cited from earlier work
TRPC6 [5] = molecular target: T1, TRPC6; parameters: method as in earlier work; conditions: 100 µM SKF-96365; ref 12 (Boulay et al.); cited from earlier work
[6] = molecular target: receptor-mediated calcium entry; parameters: method as in PMID 2173565; conditions: platelets, neutrophils and endothelial cells; read-out: IC50, block of ADP-induced calcium entry; cited from earlier work
Drosophila TRPγ = molecular target: T2, Drosophila TRPγ (Drosophila melanogaster, UniProt Q9VJJ7); test: FLIPR calcium entry in TRPγ-expressing cells stimulated by eicosatetraynoic acid; assay type: cell-based; conditions: fluo-4-loaded cells, eicosatetraynoic acid (20 µM), FLIPR Tetra; read-out: IC50 to block Drosophila TRPγ
T2 construct: expressed in transfected cells
T2 sequence (Q9VJJ7 1-1128): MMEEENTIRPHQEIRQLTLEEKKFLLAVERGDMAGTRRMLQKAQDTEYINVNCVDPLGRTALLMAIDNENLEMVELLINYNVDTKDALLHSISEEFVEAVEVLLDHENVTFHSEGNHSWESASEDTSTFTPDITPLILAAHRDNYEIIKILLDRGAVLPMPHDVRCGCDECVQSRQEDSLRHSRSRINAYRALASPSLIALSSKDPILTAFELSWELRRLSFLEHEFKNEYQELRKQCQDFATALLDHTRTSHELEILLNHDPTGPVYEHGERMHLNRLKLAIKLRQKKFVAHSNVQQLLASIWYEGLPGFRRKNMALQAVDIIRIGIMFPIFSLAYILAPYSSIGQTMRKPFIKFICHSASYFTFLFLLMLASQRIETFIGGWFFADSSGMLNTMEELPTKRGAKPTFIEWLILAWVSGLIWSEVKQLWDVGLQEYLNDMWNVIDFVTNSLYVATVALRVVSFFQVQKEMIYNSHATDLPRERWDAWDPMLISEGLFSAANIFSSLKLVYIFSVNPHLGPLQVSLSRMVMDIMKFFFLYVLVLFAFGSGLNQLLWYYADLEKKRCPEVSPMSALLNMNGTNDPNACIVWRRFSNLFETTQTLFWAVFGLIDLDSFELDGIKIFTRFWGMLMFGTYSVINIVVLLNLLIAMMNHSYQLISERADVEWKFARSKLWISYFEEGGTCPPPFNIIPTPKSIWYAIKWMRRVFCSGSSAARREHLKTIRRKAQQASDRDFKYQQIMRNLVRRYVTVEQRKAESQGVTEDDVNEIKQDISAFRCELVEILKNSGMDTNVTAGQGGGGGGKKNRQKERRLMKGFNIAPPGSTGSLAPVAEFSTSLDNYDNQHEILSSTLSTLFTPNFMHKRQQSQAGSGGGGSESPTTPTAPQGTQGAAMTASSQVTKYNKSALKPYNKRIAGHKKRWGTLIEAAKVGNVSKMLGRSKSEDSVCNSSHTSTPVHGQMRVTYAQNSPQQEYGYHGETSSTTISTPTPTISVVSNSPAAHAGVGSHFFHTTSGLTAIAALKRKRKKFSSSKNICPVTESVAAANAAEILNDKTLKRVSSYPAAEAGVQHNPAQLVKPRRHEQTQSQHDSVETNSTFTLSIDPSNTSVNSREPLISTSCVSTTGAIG
Protocol: as §1, §2

TRPM3 = molecular target: T3, TRPM3 (Homo sapiens, UniProt Q9HCF6); test: FLIPR calcium entry in TRPM3-expressing cells stimulated by pregnenolone sulphate; assay type: cell-based; conditions: fluo-4-loaded cells, pregnenolone sulphate (35 µM), FLIPR Tetra; read-out: IC50 to block TRPM3
T3 construct: expressed in transfected cells
Protocol: as §1, §2

TRPV4 = molecular target: T4, TRPV4 (Homo sapiens, UniProt Q9HBA0); test: FLIPR calcium entry in TRPV4-expressing cells stimulated by 4α-phorbol-didecanoate; assay type: cell-based; conditions: fluo-4-loaded cells, 4α-phorbol-didecanoate (5 µM), FLIPR Tetra; read-out: IC50 to block TRPV4
T4 construct: expressed in transfected cells
Protocol: as §1, §2

T3 sequence (Q9HCF6 whole entry, species assumed): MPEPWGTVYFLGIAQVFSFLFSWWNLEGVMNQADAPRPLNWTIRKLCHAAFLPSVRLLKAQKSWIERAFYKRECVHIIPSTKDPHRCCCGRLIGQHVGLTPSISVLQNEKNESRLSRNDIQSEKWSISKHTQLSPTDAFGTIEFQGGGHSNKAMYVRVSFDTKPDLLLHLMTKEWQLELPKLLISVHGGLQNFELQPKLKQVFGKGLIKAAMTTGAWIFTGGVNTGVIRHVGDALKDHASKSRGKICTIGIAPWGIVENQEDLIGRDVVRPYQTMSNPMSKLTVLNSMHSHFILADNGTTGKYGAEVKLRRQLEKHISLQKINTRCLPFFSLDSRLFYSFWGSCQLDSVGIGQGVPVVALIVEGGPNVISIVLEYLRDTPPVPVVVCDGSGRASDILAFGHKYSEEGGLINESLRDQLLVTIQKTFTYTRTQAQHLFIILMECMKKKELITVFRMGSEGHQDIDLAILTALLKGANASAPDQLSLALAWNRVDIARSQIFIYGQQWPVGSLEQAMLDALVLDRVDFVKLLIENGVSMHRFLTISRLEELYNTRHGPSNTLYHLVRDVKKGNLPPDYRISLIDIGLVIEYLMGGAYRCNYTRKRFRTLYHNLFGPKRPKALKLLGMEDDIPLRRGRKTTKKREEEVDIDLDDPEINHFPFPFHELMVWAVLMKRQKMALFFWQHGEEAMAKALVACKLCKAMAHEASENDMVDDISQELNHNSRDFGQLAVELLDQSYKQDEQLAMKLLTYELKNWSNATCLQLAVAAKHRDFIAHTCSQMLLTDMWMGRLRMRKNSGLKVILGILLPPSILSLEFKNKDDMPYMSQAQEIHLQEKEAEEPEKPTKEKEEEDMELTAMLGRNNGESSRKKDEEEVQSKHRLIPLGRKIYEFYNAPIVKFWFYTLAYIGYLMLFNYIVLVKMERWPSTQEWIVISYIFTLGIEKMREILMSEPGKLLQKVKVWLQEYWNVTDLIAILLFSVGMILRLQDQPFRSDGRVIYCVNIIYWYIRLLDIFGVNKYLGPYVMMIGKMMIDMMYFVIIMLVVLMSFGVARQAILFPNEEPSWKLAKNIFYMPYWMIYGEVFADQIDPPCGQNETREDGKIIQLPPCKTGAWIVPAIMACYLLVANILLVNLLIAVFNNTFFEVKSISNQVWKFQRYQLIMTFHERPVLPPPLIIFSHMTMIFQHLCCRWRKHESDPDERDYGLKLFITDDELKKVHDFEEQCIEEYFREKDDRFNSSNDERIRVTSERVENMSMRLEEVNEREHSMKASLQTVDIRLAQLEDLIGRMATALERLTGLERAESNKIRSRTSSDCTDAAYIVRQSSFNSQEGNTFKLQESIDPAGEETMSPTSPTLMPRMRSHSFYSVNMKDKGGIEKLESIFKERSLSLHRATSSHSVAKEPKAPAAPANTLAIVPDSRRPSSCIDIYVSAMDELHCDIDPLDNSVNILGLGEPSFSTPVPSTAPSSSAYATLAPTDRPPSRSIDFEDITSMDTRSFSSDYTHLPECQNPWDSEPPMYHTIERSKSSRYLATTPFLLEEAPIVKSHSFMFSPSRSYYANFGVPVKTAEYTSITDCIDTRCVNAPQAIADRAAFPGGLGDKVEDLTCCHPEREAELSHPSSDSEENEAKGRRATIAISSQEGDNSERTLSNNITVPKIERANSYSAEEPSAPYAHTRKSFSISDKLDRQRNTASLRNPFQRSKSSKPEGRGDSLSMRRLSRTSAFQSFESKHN
T4 sequence (Q9HBA0 whole entry, species assumed): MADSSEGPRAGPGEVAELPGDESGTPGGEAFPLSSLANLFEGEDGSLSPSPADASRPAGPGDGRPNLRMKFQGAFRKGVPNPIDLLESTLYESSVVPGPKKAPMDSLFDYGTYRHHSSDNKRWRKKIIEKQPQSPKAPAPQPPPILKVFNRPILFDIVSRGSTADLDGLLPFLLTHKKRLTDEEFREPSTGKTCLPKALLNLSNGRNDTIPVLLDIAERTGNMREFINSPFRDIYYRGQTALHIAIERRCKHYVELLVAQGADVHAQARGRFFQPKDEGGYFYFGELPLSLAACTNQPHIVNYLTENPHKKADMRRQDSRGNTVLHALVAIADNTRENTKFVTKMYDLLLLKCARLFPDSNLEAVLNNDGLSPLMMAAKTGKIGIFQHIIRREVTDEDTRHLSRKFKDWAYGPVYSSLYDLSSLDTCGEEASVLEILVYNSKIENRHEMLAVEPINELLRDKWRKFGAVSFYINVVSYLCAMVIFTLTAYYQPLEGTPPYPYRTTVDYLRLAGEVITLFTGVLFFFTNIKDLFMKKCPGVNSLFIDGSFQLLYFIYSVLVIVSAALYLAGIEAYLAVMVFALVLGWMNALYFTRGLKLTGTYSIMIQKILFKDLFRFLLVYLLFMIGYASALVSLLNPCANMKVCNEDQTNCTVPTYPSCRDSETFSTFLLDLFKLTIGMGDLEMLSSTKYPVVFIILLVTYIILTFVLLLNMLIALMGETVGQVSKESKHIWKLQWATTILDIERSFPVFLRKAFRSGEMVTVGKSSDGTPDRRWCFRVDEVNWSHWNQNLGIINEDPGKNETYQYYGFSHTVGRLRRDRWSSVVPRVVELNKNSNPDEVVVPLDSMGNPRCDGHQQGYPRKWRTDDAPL

pIC50 (TRPC6 [1]): 4.54
SMILES: NCCCCCCCCCCNS(=O)(=O)c1cccc2c(Cl)cccc12 [W-7 decyl]

SMILES: [Cl][La]([Cl])[Cl] [lanthanum chloride]
pIC50 (TRPC6 [2]): < 4.30 | pIC50 (TRPC3 [3]): 5.40

pIC50 (TRPC6 [1]): 4.70
SMILES: NCCCCCCNS(=O)(=O)c1cccc2ccccc12 [W-5, N-(6-Aminohexyl)-1-naphthalenesulfonamide]

pIC50 (TRPC6 [1]): 4.07
SMILES: NCCCCCCCCNS(=O)(=O)c1cccc2c(I)cccc12 [J-8, (N-8-Aminooctyl)-5-iodo-1-naphthalenesulfonamide]

pIC50 (TRPC6 [1]): 4.44
SMILES: O=S(=O)(c1cccc2c(Cl)cccc12)N1CCCNCC1 [ML-9, 1-(5-Chloronaphthalene-1-sulfonyl)-1H-hexahydro-1,4-diazepine]

pIC50 (TRPC6 [1]): 4.46
SMILES: NCCCCCCNS(=O)(=O)c1ccc2c(Cl)cccc2c1 [W-7 isomer, N-(6-Aminohexyl)-5-chloro-2-naphthalenesulfonamide]

SMILES: COc1ccc(CCCOC(Cn2ccnc2)c2ccc(OC)cc2)cc1.Cl (stereo not drawn) [SKF-96365, 1-{β[3-(4-methoxyphenyl)propoxy]-4-methoxyphenethyl}-1H-imidazole hydrochloride]
block of endogenously expressed TRPC3 (TRPC3 [4]): effective in blocking | block of heterologously expressed TRPC6 (TRPC6 [5]): complete block | pIC50 [6]: ~5.00

pIC50 (Drosophila TRPγ): 5.30 | pIC50 (TRPM3): 4.82 | pIC50 (TRPV4): 4.19
SMILES: NCCCCCCNS(=O)(=O)c1cccc2c(Cl)cccc12 [W-7, N-(6-Aminohexyl)-5-chloro-1-naphthalenesulfonamide]
